Data: patent US11845726B2
pEC50, pIC50, pKi: −log10 of the molar value. Where “and” joins values, the source holds several entries; their conditions need not be identical. Equal entries are not always repeated. Entries after “also recorded” stand apart in the source; their conditions may differ.

Key:
[1] = Mouse pharmacokinetic (PK) evaluation of drug metabolism to psilocin; conditions: for administered compound in plasma after oral dosing: any dose
5-HT2A receptor [2] = molecular target: T1, 5-HT2A receptor (Mus musculus, UniProt P35363); experiment: Drug-induced Head Twitch Response (HTR); format: in vivo, mice; conditions: 1 mg/kg i.p., 15-to-30-minute window after administration
T1 construct: tissue Charles River; host or cells: living C57BL/6-Elite mice (neuronal receptor)

[3] = In vitro metabolic stability / psilocin release in AB serum; format: in vitro ADME, human
Description: A fundamental evaluation in drug development is the assessment of absorption, distribution, metabolism, excretion, and pharmacokinetics (ADME/PK) (Eddershaw et al., 2000, Drug Discovery Today 5(9): 409-414). […] Drug stability upon exposure to human liver microsomes and liver S9 cellular fractions is a common in vitro assay to approximate in vivo, liver-based drug metabolism (Richardson et al., 2016 Drug Metabolism Letters 10:83-90). First-pass metabolism is also often approximated in vitro using intestinal microsome and cellular S9 fractions (Hatley et al., 2017, Biopharmaceuticals & Drug Disposition, 38(2):155-160). Further, it is well known that human serum, and particularly circulating serum esterases can contribute to systemic drug metabolism (Williams, F M 1987, Pharmacology and Therapeutics, 34:99-109). Many pharmacological agents are classified as prodrugs, as they undergo metabolic transformation in vivo upon administration to release the active drug compound into the systemic compartment (Zawilska J B, et al. 2013, Pharmacological Reports, 65:1-14). Psilocybin, a serotonergic psychedelic agent, is well known prodrug that is metabolized into the psychoactive product, psilocin (Dinis-Oliveira, R J 2017, Drug Metabolism Reviews, 49(1):84-91). […] Supernatants were analyzed for the presence of candidate prodrugs (parent molecule) and psilocin (the predicted metabolite) using Orbitrap LC-MS (Thermo Scientific) using previously described methods (Menéndez-Perdomo et al., 2021, J. Mass Spectrom., 56: e4683). […] Assay concentrations (μM) of both parent ‘prodrug’ molecule and psilocin metabolite, as quantified through LC-MS using routine standard curve procedures, were plotted as functions of assay time (minutes). The metabolism rate (T1/2) was determined from the metabolism curve plot using the one phase decay feature of GraphPad PRISM software (Version 9.2.0). The quantity of parent prodrug at time zero was set as 100%. […]

5-HT2A receptor [4] = molecular target: 5-HT2A receptor (Homo sapiens, UniProt P28223); experiment: [3H]ketanserin competition binding assay (SPA); conditions: for 5-HT2A competition binding: control ligands, [3H]ketanserin competition
5-HT1A receptor = molecular target: T2, 5-HT1A receptor (Homo sapiens, UniProt P08908); experiment: cAMP-Glo assay of 5-HT1A receptor modulation in +5-HT1A and -5-HT1A CHO-K1 cells; format: cell-based; conditions: for cAMP levels / 5-HT1A receptor modulation: forskolin-stimulated +5-HT1A vs -5-HT1A cells
T2 construct: host or cells: CHO-K1 co-expressing Ga15
T2 sequence (P08908 1-422): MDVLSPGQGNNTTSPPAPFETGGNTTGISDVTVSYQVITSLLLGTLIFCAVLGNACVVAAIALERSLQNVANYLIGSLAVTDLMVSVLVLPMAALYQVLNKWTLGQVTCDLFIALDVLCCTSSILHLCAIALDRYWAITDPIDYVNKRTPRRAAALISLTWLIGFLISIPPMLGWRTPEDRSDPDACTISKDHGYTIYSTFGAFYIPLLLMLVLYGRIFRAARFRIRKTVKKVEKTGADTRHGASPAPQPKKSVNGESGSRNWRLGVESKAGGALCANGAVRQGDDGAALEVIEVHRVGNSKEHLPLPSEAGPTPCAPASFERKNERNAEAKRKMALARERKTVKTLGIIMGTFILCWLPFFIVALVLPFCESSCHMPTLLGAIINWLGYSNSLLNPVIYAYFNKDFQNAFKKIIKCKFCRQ

in vitro = in vitro ADME, human; conditions: for half-life: human
Description: A fundamental evaluation in drug development is the assessment of absorption, distribution, metabolism, excretion, and pharmacokinetics (ADME/PK) (Eddershaw et al., 2000, Drug Discovery Today 5(9): 409-414). […] Drug stability upon exposure to human liver microsomes and liver S9 cellular fractions is a common in vitro assay to approximate in vivo, liver-based drug metabolism (Richardson et al., 2016 Drug Metabolism Letters 10:83-90). First-pass metabolism is also often approximated in vitro using intestinal microsome and cellular S9 fractions (Hatley et al., 2017, Biopharmaceuticals & Drug Disposition, 38(2):155-160). Further, it is well known that human serum, and particularly circulating serum esterases can contribute to systemic drug metabolism (Williams, F M 1987, Pharmacology and Therapeutics, 34:99-109). Many pharmacological agents are classified as prodrugs, as they undergo metabolic transformation in vivo upon administration to release the active drug compound into the systemic compartment (Zawilska J B, et al. 2013, Pharmacological Reports, 65:1-14). Psilocybin, a serotonergic psychedelic agent, is well known prodrug that is metabolized into the psychoactive product, psilocin (Dinis-Oliveira, R J 2017, Drug Metabolism Reviews, 49(1):84-91). To evaluate the capacity of test molecules to similarly serve as prodrugs of psilocin, time-dependent, metabolic stability assays using human AB serum, human intestinal microsomes (HIM), human intestinal S9 fractions (HIS9), human liver microsomes (HLM), human liver S9 fractions (HLS9), human alkaline phosphatase, and porcine esterase were performed. […] Liquid chromatography coupled mass spectrometry (LC-MS) was employed to track the conversion of the test molecules into psilocin. All intestinal and liver fractions and NADPH RapidStart reagent was purchased from Sekisui/XenoTech. Human AB serum was purchased from Sigma. For intestine and liver metabolism assays, 2.5 μM candidate compounds were incubated in 400 μg/ml of each cellular fraction (HLM, HLS9, HIM, or HIS9) in 50 mM potassium phosphate buffer (pH 7.4) containing 3 mM MgCl2 and 1 mM EDTA supplemented with NADPH RapidStart at 37° C. Samples were taken at the start of the assay, and at every 20 minutes for 2 hours. Time-point samples were precipitated with 1:1 volume of acetonitrile to quench the reaction before centrifugation at 4000×g for 20 minutes. Supernatants were analyzed for the presence of candidate prodrugs (parent molecule) and psilocin (the predicted metabolite) using Orbitrap LC-MS (Thermo Scientific) using previously described methods (Menéndez-Perdomo et al., 2021, J. Mass Spectrom., 56: e4683). The serum assays were carried out in 10% human AB serum in 50 mM potassium phosphate buffer (pH 7.4) containing 3 mM MgCl2 and 1 mM EDTA. Bovine alkaline phosphatase assays were carried out using one unit of purified enzyme in 50 mM potassium phosphate buffer (pH 7.4) containing 3 mM MgCl2 and 1 mM EDTA. Porcine esterase assays were carried out using one unit of purified enzyme in 50 mM potassium phosphate buffer (pH 7.4) containing 3 mM MgCl2 and 1 mM EDTA. Assay concentrations (μM) of both parent ‘prodrug’ molecule and psilocin metabolite, as quantified through LC-MS using routine standard curve procedures, were plotted as functions of assay time (minutes). The metabolism rate (T1/2) was determined from the metabolism curve plot using the one phase decay feature of GraphPad PRISM software (Version 9.2.0). The quantity of parent prodrug at time zero was set as 100%.
Positive controls were first tested to ensure that assays were functioning properly.

HepG2 cells = experiment: PrestoBlue cell viability assay; conditions: 48 hours
GABAA = format: cell-based
[5] = Stability in enzyme-free control buffer; format: in vitro ADME; conditions: assay buffer without enzymes
Description: A fundamental evaluation in drug development is the assessment of absorption, distribution, metabolism, excretion, and pharmacokinetics (ADME/PK) (Eddershaw et al., 2000, Drug Discovery Today 5(9): 409-414). […] Drug stability upon exposure to human liver microsomes and liver S9 cellular fractions is a common in vitro assay to approximate in vivo, liver-based drug metabolism (Richardson et al., 2016 Drug Metabolism Letters 10:83-90). First-pass metabolism is also often approximated in vitro using intestinal microsome and cellular S9 fractions (Hatley et al., 2017, Biopharmaceuticals & Drug Disposition, 38(2):155-160). […] Supernatants were analyzed for the presence of candidate prodrugs (parent molecule) and psilocin (the predicted metabolite) using Orbitrap LC-MS (Thermo Scientific) using previously described methods (Menéndez-Perdomo et al., 2021, J. Mass Spectrom., 56: e4683). […] Assay concentrations (μM) of both parent ‘prodrug’ molecule and psilocin metabolite, as quantified through LC-MS using routine standard curve procedures, were plotted as functions of assay time (minutes). The metabolism rate (T1/2) was determined from the metabolism curve plot using the one phase decay feature of GraphPad PRISM software (Version 9.2.0). The quantity of parent prodrug at time zero was set as 100%.

[6] = 1 mg/kg i.v., 0.25 h, Mean ± SD
[7] = 1 mg/kg i.v., 1 h, individual mice
[8] = 1 mg/kg i.v., 2 h, individual mice
[9] = 1 mg/kg i.v., 4 h, individual mice
[10] = 1 mg/kg i.v., 6 h, individual mice
[11] = 1 mg/kg i.v., 8 h, individual mice
[12] = 3 mg/kg oral, 24 h, individual mice

T1 sequence (P35363 whole entry): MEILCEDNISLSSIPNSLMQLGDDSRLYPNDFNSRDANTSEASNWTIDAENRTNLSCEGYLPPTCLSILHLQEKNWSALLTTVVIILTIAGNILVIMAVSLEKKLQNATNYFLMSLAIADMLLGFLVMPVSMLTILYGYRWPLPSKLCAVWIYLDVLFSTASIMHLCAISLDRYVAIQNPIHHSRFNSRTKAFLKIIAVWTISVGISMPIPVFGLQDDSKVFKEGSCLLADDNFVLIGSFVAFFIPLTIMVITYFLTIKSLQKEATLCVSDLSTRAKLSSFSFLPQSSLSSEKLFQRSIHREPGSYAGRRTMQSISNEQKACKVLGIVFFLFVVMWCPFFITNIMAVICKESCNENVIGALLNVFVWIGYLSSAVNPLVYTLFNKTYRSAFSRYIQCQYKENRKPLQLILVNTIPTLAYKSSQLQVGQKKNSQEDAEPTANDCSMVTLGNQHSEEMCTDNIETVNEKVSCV
5-HT2A receptor (Homo sapiens, UniProt P28223), sequence (P28223 whole entry): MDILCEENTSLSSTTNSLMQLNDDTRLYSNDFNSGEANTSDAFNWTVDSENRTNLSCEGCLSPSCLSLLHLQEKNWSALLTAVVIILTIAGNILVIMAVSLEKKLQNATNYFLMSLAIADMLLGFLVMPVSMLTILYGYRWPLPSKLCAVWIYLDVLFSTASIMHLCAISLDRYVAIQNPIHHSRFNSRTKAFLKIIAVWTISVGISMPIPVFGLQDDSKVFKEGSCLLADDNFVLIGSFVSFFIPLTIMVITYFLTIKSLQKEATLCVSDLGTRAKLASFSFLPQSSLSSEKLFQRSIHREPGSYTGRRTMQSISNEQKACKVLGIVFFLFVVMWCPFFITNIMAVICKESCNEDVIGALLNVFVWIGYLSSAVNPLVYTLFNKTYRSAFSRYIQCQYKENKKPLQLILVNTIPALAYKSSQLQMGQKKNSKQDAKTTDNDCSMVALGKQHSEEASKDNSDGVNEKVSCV

Compound	Head Twitch Response (5-HT2A receptor [2])	stability / conversion to psilocin [3]	pKi (5-HT2A receptor [4])	stability / conversion to psilocin (in vitro; HLM)	stability / conversion to psilocin (in vitro; HLS9)	CD50 (cytotoxicity) (HepG2 cells) [µM]	administered compound in plasma after i.v. dosing ([1]; 1 mg/kg i.v.)	Plasma concentration of the administered compound itself ([1]; 1 mg/kg i.v., 5 min, Mean ± SD) [ng/mL]	Plasma concentration of the administered compound itself [1, 6] [ng/mL]	Plasma concentration of the administered compound itself ([1]; 1 mg/kg i.v., 0.5 h, Mean ± SD)	Plasma concentration of the administered compound itself ([1]; 1 mg/kg i.v., 1 h, Mean ± SD)	Plasma concentration of the administered compound itself [1, 7]	Plasma concentration of the administered compound itself [1, 8]	Plasma concentration of the administered compound itself [1, 9]	Plasma concentration of the administered compound itself [1, 10]	Plasma concentration of the administered compound itself [1, 11]	Plasma concentration of psilocin [1, 12]	administered compound in plasma after oral dosing [1]	cAMP levels / 5-HT1A receptor modulation (5-HT1A receptor)	5-HT2A competition binding (5-HT2A receptor [4])	also measured
CN(C)CCc1c[nH]c2cccc(OC(=O)OCc3ccccc3)c12 [B(II)]	elicit head twitching	failed completely to dissociate	6.56	did not readily dissociate to psilocin	did not readily dissociate to psilocin	65.9	–	–	–	–	–	–	–	–	–	–	–	–	–	–	time administered compound resides in plasma post-dosing ([1]; 10 mg/kg oral): up to 4 hours; EC50 at 5-HT1A (5-HT1A receptor; forskolin-stimulated +5-HT1A cells): neither molecule engaged 5-HT1A with sufficient potency to calculate an EC50 value; half-life (in vitro; microsomes, pH 7.4): 3.63 h; half-life (in vitro; s9, pH 7.4): 8.95 h
CN(C)CCc1c[nH]c2cccc(OC(=O)SCc3ccccc3)c12 [E(VI)]	Elevated incidences of HTR; also recorded: elevated response was observed in mice treated with E(VI) compared to B(II)	quickly converted to psilocin; also recorded: nearly completely disappears upon in vitro exposure to AB serum	6.89	quickly converted to psilocin	quickly converted to psilocin	74.5	detectable levels of E(VI)	24.4 ± 30.2	63.3 ± 51.7	7.81 ± 6.17 ng/mL	4.49 (n = 2) ng/mL	3.14 ng/mL and No Peak	0.776 ng/mL and No Peak	BLQ (2×) and No Peak	No Peak (2×) and BLQ	No Peak	No Peak (2×) and BLQ	did not yield any detectable levels of E(VI); also recorded: never detected at any timepoint	mild receptor modulation at higher ligand concentrations	–	Plasma concentration of the administered compound itself ([1]; 1 mg/kg i.v., 2 h, Mean ± SD): 0.685 (n = 2) ng/mL; AUC0-tlast of the administered compound ([1]; 1 mg/kg i.v., Mean ± SD): 19.7 ± 15.9 ng·h/mL; AUC0-tlast/Dose of the administered compound ([1]; 1 mg/kg i.v., Mean ± SD): 19.7 ± 15.9 kg·ng·h/mL/mg; AUC0-tlast/Dose of the administered compound ([1]; 1 mg/kg i.v., individual mice): 20.4 kg·ng·h/mL/mg and 35.2 kg·ng·h/mL/mg and 3.40 kg·ng·h/mL/mg; administered compound in plasma ([1]; 1 mg/kg oral): neither B(II) nor E(VI) were detected in plasma; Plasma concentration of psilocin ([1]; 1 mg/kg oral, 8 h, individual mice): BLQ; Plasma concentration of psilocin ([1]; 1 mg/kg oral, 24 h, individual mice): No Peak; Plasma concentration of psilocin ([1]; 10 mg/kg oral, 24 h, individual mice): BLQ; pIC50 (GABAA; blocker (BL)): 4.49; pEC50 (GABAA; opener (OP)): < 4.00
CN(C)CCc1c[nH]c2cccc(O)c12 [psilocin]	–	–	–	–	–	–	–	–	–	–	–	–	–	–	–	–	–	–	reduction in cAMP levels	binding	–
CN(C)CCc1c[nH]c2cccc(OP(=O)(O)O)c12 [psilocybin]	–	stable in serum with no conversion to psilocin	–	stable in liver fractions with no conversion to psilocin	stable in liver fractions with no conversion to psilocin	–	only detectable in i.v. administered animals	144 ± 167	13.2 ± 12.5	4.28 (n = 2) ng/mL	1.21 (n = 1) ng/mL	No Peak (2×) and 1.21 ng/mL	No Peak	No Peak	No Peak	No Peak (2×) and 2.54 ng/mL	BLQ	not detectable in orally administered animals at any dose	–	–	Plasma concentration of the administered compound itself ([1]; 1 mg/kg i.v., 5 min, individual mice): 19.7 ng/mL and 76.8 ng/mL and 334 ng/mL; Plasma concentration of the administered compound itself ([1]; 1 mg/kg i.v., 0.25 h, individual mice): 3.32 ng/mL and 8.95 ng/mL and 27.2 ng/mL; Plasma concentration of the administered compound itself ([1]; 1 mg/kg i.v., 0.5 h, individual mice): No Peak and 2.35 ng/mL and 6.21 ng/mL; Plasma concentration of psilocin ([1]; 1.56 mg/kg oral, 24 h, individual mice): BLQ; stability [5]: stability of psilocybin was confirmed in assay buffer
NCCc1c[nH]c2ccc(O)cc12 [serotonin]	–	–	–	–	–	–	–	–	–	–	–	–	–	–	–	–	–	–	reduction in cAMP levels	–	–
N[C@@H](Cc1c[nH]c2ccccc12)C(=O)O [tryptophan]	–	–	–	–	–	–	–	–	–	–	–	–	–	–	–	–	–	–	no reduction in cellular cAMP levels	no binding	–
